Bridge positions count the residues as written; N and C are the ends. Square brackets hold non-standard residues; d marks the D form. Peptide text beside a SMILES is read from it. hArg = N=C(N)NCCCC[C@H](N)C(=O)O; Mpa = O=C(O)CCS
Assays:
clinical [1] = details: human, in vivo, iv, Vdss
clinical [2] = details: human, in vivo, iv
clinical [3] = details: human, in vivo, iv, CL
clinical [4] = details: human, in vivo, iv; remark: listed apart in the source
clinical [5] = details: human, in vivo, iv, t1/2

Row | Compound | Vd (clinical [1]) [L/kg] | fraction unbound (clinical [2]) | clearance (clinical [3]) [mL/min/kg] | MRT (clinical [4]) [h] | half-life (clinical [5]) [h]
1 | CC(CN(C)C)CN1c2ccccc2CCc2ccccc21 (stereo not given) [TRIMIPRAMINE] | 16 | 0.051 | 16 | 17 | 23
2 | COc1cc([C@@H]2c3cc4c(cc3C(OC3OC5COC(C)OC5C(O)C3N)C3COC(=O)[C@@H]32)OCO4)cc(OC)c1O (stereo not given in full) [NK-611] | 0.3 | 0.013 | 0.4 | 17 | 14
3 | NC(=O)OC[C@@H]1[C@H](NC(=O)/C(=N\OCC(=O)O)c2csc(N)n2)C(=O)N1S(=O)(=O)O [CARUMONAM] | 0.18 | 0.72 | 1.5 | 2 | 1.6
4 | O=C1CCC(N2C(=O)c3ccccc3C2=O)C(=O)N1 (stereo not given) [THALIDOMIDE] | 0.95 | 0.4 | 3.4 | 4.3 | 4.7
5 | CCCN1CCCC[C@H]1C(=O)Nc1c(C)cccc1C [ROPIVACAINE] | 0.75 | 0.06 | 5.5 | 2.3 | 2.2
6 | N=C(N)NCCCC[C@@H]1NC(=O)CCSSC[C@@H](C(N)=O)NC(=O)[C@@H]2CCCN2C(=O)[C@H](Cc2c[nH]c3ccccc23)NC(=O)[C@H](CC(=O)O)NC(=O)CNC1=O [EPTIFIBATIDE] ([Mpa][hArg]GDWPC-NH2; disulfide 1-7) | 0.17 | 0.75 | 1.2 | 2.4 | 4.2
7 | CCCCCN(C)CCC(O)(P(=O)(O)O)P(=O)(O)O [IBANDRONIC ACID] | 0.55 | 0.15 | 1.8 | 5.1 | 14
8 | O.O=P(O)(O)C(O)(Cn1ccnc1)P(=O)(O)O [ZOLEDRONIC ACID] | 0.6 | 0.78 | 2.2 | 4.5 | 11
9 | Nc1c2c(nc3ccccc13)CCCC2 [TACRINE] | 11 | 0.25 | 56 | 3.3 | 3.3
10 | CCC1(c2cccc(O)c2)CCCCN(C)C1 (stereo not given) [MEPTAZINOL] | 3.3 | 0.73 | 28 | 2 | 1.7
11 | CN(C)[C@@H]1C(O)=C(C(=O)NCN2CCCC2)C(=O)[C@@]2(O)C(O)=C3C(=O)c4c(O)cccc4[C@@](C)(O)[C@H]3C[C@@H]12 [ROLITETRACYCLINE] | 0.54 | 0.5 | 0.97 | 9.3 | 8.8
12 | COc1ccc(CCNCC(O)COc2cccc(C)c2)cc1OC (stereo not given) [BEVANTOLOL] | 0.67 | 0.015 | 5.5 | 2 | 1.9
13 | Nc1nc(NC2CC2)c2ncn([C@H]3C=C[C@@H](CO)C3)c2n1 [ABACAVIR] | 0.84 | 0.5 | 13 | 1.1 | 1
14 | CN[C@@H](C)Cc1ccccc1 [METHAMPHETAMINE] | 4.3 | 0.85 | 4.4 | 16 | 12
15 | CCCCCCCCCC(=O)N[C@@H](Cc1c[nH]c2ccccc12)C(=O)N[C@H](CC(N)=O)C(=O)N[C@@H](CC(=O)O)C(=O)N[C@@H]1C(=O)NCC(=O)N[C@@H](CCCN)C(=O)N[C@@H](CC(=O)O)C(=O)N[C@H](C)C(=O)N[C@@H](CC(=O)O)C(=O)NCC(=O)N[C@H](CO)C(=O)N[C@@H]([C@H](C)CC(=O)O)C(=O)N[C@@H](CC(=O)c2ccccc2N)C(=O)O[C@@H]1C | 0.088 | 0.083 | 0.16 | 9.2 | 8.1
16 | CCC(=O)O[C@](Cc1ccccc1)(c1ccccc1)[C@H](C)CN(C)C [PROPOXYPHENE] | 12 | 0.24 | 15 | 13.3 | 18
